Experiments:
[1] = tested on: HMEC-1 (microvascular endothelial cells; CD44+ve); experiment: cell invasion in a modified Boyden chamber system, HMEC-1; type: cell-based, Human; conditions: 48 h
Protocol: Twelve well plate polycarbonate inserts were divided into two groups with half remaining uncoated and half coated with 100 μg/cm^2 of Matrigel. The coated inserts were allowed to dry overnight at room temperature in a sterile tissue culture hood. The required cell line; HMEC-1, PC3 or MDA231 was trypsinised, re-suspended in fresh medium and the cell number calculated. 5×10^5 cells, in a total volume of 500 μl, were added to the insert (top chamber) and 1.5 ml of complete medium added to the bottom chamber of the plate as a stimulus for invasion. FKBP-L 24mer was added to both the upper and lower chamber of the plate at the required concentration in the experimental wells. The plate was incubated for 24 h (PC3 or MDA231) or 48 h (HMEC-1).
The inserts were carefully removed from their 12 well plate and inserts without Matrigel coating were placed directly into Carnoys fixative. […]
The polycarbonate inserts were cut from the holders and placed on to mounting medium on a microscope slide. […] The slides were stored at 4° C. until analysed.
Ten images from each insert were captured and the number of fluorescent cells per image was analysed by Lucia Imaging software. The ratio of cells visible on non-coated inserts compared to cells visible on Matrigel coated inserts was expressed as % invasion. […]

DU145 tumours = experiment: prostate cancer xenograft model, daily IP injection; type: in vivo, SCID mice
Protocol: Du145 (prostate carcinoma) cells were obtained from Cancer Research UK and cultured in RPMI 1640 medium (Invitrogen) supplemented with 10% foetal calf serum. All cell lines were grown as monolayers, incubated at 37° C. under 5% CO2.
24 male immunocompromised (severe combined immunodeficient) mice were used (Harlan). The mice were acclimatised and caged in groups of 5 or less in an isolator. Du145 (prostate carcinoma) cells were cultured as previously described. Sub-confluent cells were harvested and the cell concentration was adjusted to 5×10^7 cells/ml in PBS. The dorsum of each mouse was shaved. After administrating aesthetic, each mouse received intra-dermal injections of 5×10^6 Du145 tumour cells (100 μl) bilaterally into the rear dorsum with a 26-gauge needle. The tumours were allowed to grow until they reached a volume of 150-175 mm^3. The mice were randomly divided into four treatment groups: (a) Control: PBS only (8 mice); (b) 24mer FKBPL peptide: 0.3 mg/kg/day (6 mice); (c) 24mer FKBPL peptide: 3×10^−3 mg/kg/day (6 mice); and (d) 24mer FKBPL peptide: 3×10^−4 mg/kg/day (5 mice).
The mice received daily IP injections (100 μl) of the above treatments. The weight and the tumour volume of each mouse were recorded every 2 days. Tumour volume was calculated as: Length×Breadth×Height×0.5236. Twenty-one days after initial treatment the following animals were sacrificed: 0.3 mg/kg/day 24mer FKBPL (2 mice), 3×10^−3 mg/kg/day (2 mice), 3×10^−4 mg/kg/day (1 mouse) and PBS (2 mice). The tumours were excised and stored in saline formalin solution for future histopathological analysis.

migrating HMEC-1 = experiment: immunohistochemical analysis of cytoskeletal morphology (anti-tubulin, anti-vimentin, confocal microscopy); type: cell-based, Human; conditions: 750 ngml^−1; 5 hours after wounding
Protocol: Immunohistochemical analysis was carried out to assess cytoskeletal morphology upon treatment with FKBP-L by staining for tubulin and vimentin. HMEC-1 were seeded in four well chamber slides and incubtated overnight until confluent monolayers had formed. Media was removed from each well and the monolayer wounded as previously described. The cells were re-supplemented with medium containing 750 ngml^−1 recombinant His-tagged FKBP-L protein (i.e., SEQ ID NO: 1). The cells were incubated for 5 hours and the chambers were removed from the slides and the cells washed four times in PBS followed by fixation in 4% PBS buffered paraformaldehyde treated with 0.1% Triton X for 20 minutes. The cells were washed three times in PBS, and blocked for 20 minutes in 2% BSA containing 0.1% Triton X. Blocked cells were washed in PBS and incubated with one of the following monoclonal primary antibodies: (A) anti α tubulin (1:500); and (B) anti-vimentin (1:200), for 90 minutes. The cells were washed in PBS followed by a 1 hour incubation with FITC conjugated anti-mouse secondary (1:30) at room temperature. The cells were mounted with Vectashield containing propidium iodide and sealed to prevent dehydration. The slides were covered in tinfoil and stored at 4° C. for analysis using fluorescence confocal microscopy.

| Molecule | effect on cell invasion through Matrigel [1] | tumors compared with controls (Kaplan-Meier, time to 3× treatment volume) (DU145 tumours; 0.0003 mg/kg/day, daily IP) | time for tumours to reach 3× their treatment volume (Kaplan-Meier survival) (DU145 tumours; 0.003 mg/kg/day, daily IP) | time for tumours to reach 3× their treatment volume (Kaplan-Meier survival) (DU145 tumours; 0.3 mg/kg/day, daily IP) | tumours that failed to reach their volume tripling within the duration of the experiment (all but the stated number) (DU145 tumours; 0.3 mg/kg/day, daily IP) | growth of DU145 tumours compared to vehicle only treated tumours (DU145 tumours; 0.3 mg/kg/day, daily i.p.) | growth of DU145 tumours compared to vehicle only treated tumours (DU145 tumours; 3×10^−3 mg/kg/day, daily i.p.) | body weight after daily treatment (tolerability) (DU145 tumours; daily IP injection) | tumour appearance (DU145 tumours; most effective doses, daily i.p., a number of tumours) | intermediate filament morphology (anti-vimentin staining) (migrating HMEC-1) | microtubule morphology (anti α tubulin staining) (migrating HMEC-1) |
| --- | --- | --- | --- | --- | --- | --- | --- | --- | --- | --- | --- |
| H-QIRQQPRDPPTETLELEVSPDPAS-OH [FKBP-L 24mer] | potent inhibitor | not significantly different from controls | significantly later than controls | significantly later than controls | All but two tumours (of 6) | significantly slowed the growth | significantly slowed the growth | None of the animals lost weight | evidence of a necrotic centre | – | – |
| full length recombinant FKBP-L: recombinant full length his-tagged FKBP-L protein (SEQ ID NO: 1) expressed in BL21 (DE3) (protein, listed as Homo sapiens, His tag) MRGSHHHHHHGMASMTGGQQMGRDLYDDDDKDRWGSMETPPVNTIGEKDTSQPQQEWEKNLRENLDSVIQIRQQPRDPPTETLELEVSPDPASQILEHTQGAEKLVAELEGDSHKSHGSTSQMPEALQASDLWYCPDGSFVKKIVIRGHGLDKPKLGSCCRVLALGFPFGSGPPEGWTELTMGVGPWREETWGELIEKCLESMCQGEEAELQLPGHTGPPVGLTLASFTQGRDSWELETSEKEALAREERARGTELFRAGNPEGAARCYGRALRLLLTLPPPGPPERTVLHANLAACQLLLGQPQLAAQSCDRVLEREPGHLKALYRRGVAQAALGNLEKATADLKKVLAIDPKNRAAQEELGKVVIQGKNQDAGLAQGLRKMFG | – | – | – | – | – | – | – | – | – | highly disorganized | little alignment into the wound |

Reference: patent US10577406B2, “FKBP-L polypeptides and uses in angiogenesis-mediated disorders” (ALMAC DISCOVERY LIMITED, priority 2006, dated 2020)
